Assay results published in US20060052390A1, “Treatment of multiple myeloma by p38 MAP kinase and proteasome inhibition” (Scios, Inc., priority 2003, published 2006).
Entries after “also recorded” stand apart in the source; their conditions may differ. Counter-ions that a name gives are not always drawn. Residues, ends and D or L forms follow the SMILES beside them. *: point of attachment. Cbz = O=C(OCc1ccccc1)*

Experiments:
MM/BMSC co-cultures = assay: MM cell proliferation in MM/BMSC co-cultures with MG-132; format: cell-based; details: MM cells co-cultured with BMSC; FIG. 7
Experimental: Thus, proteasome inhibitors such as VELCADE might be limiting their own ability to induce apoptosis of MM cells by inducing growth-supporting activity in the microenvironment. Inhibition of the p38 response by BMSC would counteract this support.
For these studies, U266, IM9 and RPMI8226 cells are incubated with DMSO (−) or with 0.5 μM of a disclosed p38 MAPK inhibitor (+) for 1 hour and cell lysates are immunoblotted with antibodies to phospho-p38 and p38 MAP kinase by Western analysis. U266B1 and RPMI8226 are MM cell lines, and IM9 is an Epstein Barr Virus (EBV)-transformed B cell line with characteristics of MM cells. All can be obtained from American Type Culture Collection (ATCC; Rockville, Md.). All cell lines are maintained in RPMI-1640 (ATCC), supplemented with 10% fetal bovine serum (Hyclone; Logan, Utah), 100 units/ml of penicillin, 100 μg/ml streptomycin and 2 mM L-glutamine (Life Technologies, Inc.; Grand Island, N.Y.). BMSC (Cambrex) are maintained in Myelocult H5100 supplemented with 10^−6 M hydrocortisone (Stem Cell Technologies; Vancouver, B.C.), 100 units/ml of penicillin and 100 μg/ml streptomycin. MM cells are usually seeded at a density of 3×10^4 cells/well in 96-well culture plates. For MM co-cultures, BMSC are first seeded at 1.2×10^4 cells/well in a 96-well plate in Myelocult/hydrocortisone medium for 24 hours prior to the addition of MM cells.

Hsp27 = assay: Western blot of heat shock protein levels in MM cells; format: cell-based
Experimental: (§1) Total cell lysates are immunoprecipitated with anti-MAPKAPK-2 antibody and subjected to in vitro kinase assays using purified GST-Hsp27 as substrate. To examine Hsp27 phosphorylation in MM and transformed B cells, U266, IM9 and RPMI8226 cells are incubated either with DMSO or with 0.5 μM of a p38 MAPK inhibitor and cell lysates are immunoblotted with antibodies to phospho-Hsp27 (Ser 82) and Hsp27.
Cells are collected at various times and lysates are examined by Western Blot analysis using specific antibodies against particular proteins, with GAPDH as loading control. Specific antibodies to Hsp70 and Hsp90 are from Santa Cruz Biotechnology (Santa Cruz, Calif.).
The Western blots are examined for the total Hsp27 and phospho-Hsp27 levels at three different exposure times. […] This is consistent with observations made previously in MM.1S cells. […] This phenomenon appears to be unique to Hsp27 since a decrease in the levels of Hsp70 or Hsp90 in these same samples is not observed. […] The decrease of phospho-Hsp27 levels in the PS-341-treated cells is commensurate with the decrease of total Hsp27 protein in these cells.

HSP-27 = assay: immunodetection of phospho-HSP-27 in MM cells and BMSC; format: cell-based
Experimental: as §1
U266, IM9 and RPMI8226 cells are incubated with 0.5 μM of the p38 MAPK inhibitor for 1hour and Hsp27 proteins are immunoprecipitated with agarose-conjugated Hsp27 antibody, followed by immunoblotting with anti-phospho Hsp27 (Ser 78) antibody.
(§2) Specific antibodies to p38 MAP kinase are from Santa Cruz Biotechnology (Santa Cruz, Calif.). Antibodies to phospho-p38 MAP kinase (T180/Y182) and phospho-Hsp27 (S82) are from Cell Signaling (Beverly, Mass.). Antibodies to Hsp27 and phospho-Hsp27 (S78) are from Upstate Biotechnology (Lake Placid, N.Y.). Anti-MAPKAPK-2 is from StressGen (San Diego, Calif.) while anti-GAPDH is from Biogenesis Ltd. (Poole, UK).

RANKL mRNA = RANKL mRNA induction in BMSC and MM/BMSC cultures; format: cell-based; details: 100 nM
Experimental: In addition, 100 nM of these p38 MAPK inhibitors blocks the weaker induction of RANKL by IL-6 in BMSC.

MAPKAPK-2 = MAPKAPK-2 in vitro kinase assay on immunoprecipitates of cell lysates, GST-Hsp27 substrate; format: cell-based; details: 0.5 μM
Experimental: as §1

MM cells [1] = assay: MM cell viability and proliferation with proteasome inhibitor MG-132; format: cell-based; details: for proliferation: MG-132 alone
MM cells [2] = assay: treatment of a patient with multiple myeloma; format: in vivo; details: in combination with VELCADE
Description: A patient is diagnosed with multiple myeloma. The patient presents with MM cells with rapid growth rates, which displace osteoblasts, and disrupting the balance of bone creation and destruction. A number of MM-related cytokines, such as IL-6, VEGF, IL-11, and PGE-2 are detectable. […] MM cell growth is inhibited and MM-related cytokine product is reduced. A patient diagnosed with multiple myeloma receives VELCADE and responds well until VELCADE-resistant MM cells develop. Drug resistant MM cells with rapid growth rates begin to populate the bone marrow of the subject. Elevated levels of MM-related cytokines, such as IL-6, VEGF, IL-11, and PGE-2 are again detectable.

[3] = system: calpains, cathepsins, and other lysosomal enzymes; details: cited from earlier work
p38α MAPK = molecular target: T1, p38α MAPK (Homo sapiens, UniProt Q16539); assay: p38α phospho-specific immunodetection in MM cells and BMSC; format: cell-based; details: BMSC treated with MG-132
T1 construct: endogenous in cells; host or cells: U266, IM9, RPMI8226 cells; BMSC
T1 sequence (Q16539 whole entry): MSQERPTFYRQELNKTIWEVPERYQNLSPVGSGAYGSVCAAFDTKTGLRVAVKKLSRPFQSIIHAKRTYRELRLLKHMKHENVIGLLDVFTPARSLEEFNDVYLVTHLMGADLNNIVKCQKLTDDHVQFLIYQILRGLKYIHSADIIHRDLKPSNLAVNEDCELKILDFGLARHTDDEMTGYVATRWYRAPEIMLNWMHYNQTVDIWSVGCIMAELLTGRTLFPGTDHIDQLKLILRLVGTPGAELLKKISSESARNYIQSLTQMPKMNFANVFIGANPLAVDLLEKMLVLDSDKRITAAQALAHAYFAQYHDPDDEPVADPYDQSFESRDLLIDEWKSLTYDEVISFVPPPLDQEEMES
Description: as §2

[4] = MM patients; cited from earlier work
caspases and PARP = assay: Western blot of caspase activation and PARP cleavage in MM cells; format: cell-based; details: RPMI8226; increasing duration of PS-341 treatment
Experimental: (§3) Detection of apoptotic cells was performed by staining with Annexin V-Phycoerythrin (PE) and 7-Amino Actinomycin D (7-AAD) (BD Pharmigen; San Diego, Calif.). Samples are analyzed by dual color flow cytometry using a FACScan laser flow cytometer and Cell Quest software (Becton Dickinson; San Jose, Calif.). 7-AAD is a nucleic acid dye that is used to exclude nonviable cells in flow cytometric assays. Cells that are Annexin V-PE positive and 7-AAD negative are considered early apoptotic. Antibodies to caspase-3, -6, -7, -8, -9, and PARP are from Cell Signaling (Beverly, Mass.).
Protein lysates from RPMI8226 cells obtained at these time points are collected in parallel and examined for Hsp27 levels, caspase activation and PARP cleavage by Western blot analysis.

RPMI8226 cells = assay: apoptosis by Annexin V-PE flow cytometry in RPMI8226 cells; format: cell-based
Experimental: Cells are collected at indicated times and assayed.
as §3

[5] = RPMI8226, 10 nM PS-341, 8 hours

## C[C@@H]1CN(Cc2ccc(F)cc2)[C@@H](C)CN1C(=O)c1cc2c(C(=O)C(=O)N(C)C)cn(C)c2cc1Cl [Compound 57]
MM/BMSC co-cultures
  effect on the ability of MG-132 to reduce MM cell proliferation: enhanced the ability of MG-132 to reduce MM cell proliferation; also recorded: enhances the anti-proliferative effect
Hsp27; 0.5 μM with 10 nM PS-341, 12 and 16 hours, RPMI8226 and IM9 cells
  total Hsp27: enhanced reduction
Hsp27; inhibitor alone, even after prolonged incubation
  total Hsp27 levels: does not affect
HSP-27; BMSC
  phosphorylation of HSP-27: blocked phosphorylation of HSP-27 completely
HSP-27; MM cells
  phosphorylation of HSP-27: blocked phosphorylation of HSP-27 completely
HSP-27; U266, IM9 and RPMI8226, 0.5 μM, cell lysates or immunoprecipitation
  Hsp27 phosphorylation: inhibits
HSP-27; both drugs (PS-341 and p38 MAPK inhibitor), all time points
  Hsp27 phosphorylation: complete inhibition
RANKL mRNA; BMSC
  induction of RANKL by IL-6: blocks
RANKL mRNA; BMSC and MM/BMSC cultures, FIG. 5
  induction of RANKL mRNA by TGFβ and IL-1: blocked this induction
RANKL mRNA; FIG. 5
  basal expression of RANKL mRNA: blocked
MAPKAPK-2
  activity of downstream substrate MAPKAPK-2: suppresses
MM cells [1]; MG-132 in the presence of the p38 MAPK inhibitor, related to the dose of both
  IM9 proliferation: reduced or entirely blocked
MM cells [1]; co-exposure with MG-132, MM cells, FIG. 6
  effect on the reduction of MM cell viability and proliferation caused by MG-132: enhanced the reduction of MM cell viability and proliferation; also recorded: enhances the anti-proliferative effect

## C[C@@H]1CN(Cc2ccc(F)cc2)[C@@H](C)CN1C(=O)c1cc2c(C(=O)C(=O)N(C)C)cn(C)c2cc1Cl [Compound 57 hydrochloride salt]
MM cells [2]; patient with VELCADE-resistant MM
  sensitivity of the MM cells to VELCADE: restores the sensitivity
MM cells [2]; patient
  MM-related cytokine product: reduced
MM cells [2]; patient, listed as Compound 57 in the hydrochloric salt form
  MM cell growth: again inhibited

## CC(C)C[C@@H](C=O)NC(=O)[C@H](CC(C)C)NC(=O)[C@H](CC(C)C)NC(=O)OCc1ccccc1 [MG-132, Carbobenzoxy-L-Leucyl-L-Leucyl-L-Leucinal, reference compound] (Cbz-Leu-Leu-Leu-aldehyde)
[3]
  concentrations with activity against calpains, cathepsins and other lysosomal enzymes, above those used in the disclosed experiments: ≥ 10 -fold
p38α MAPK
  activation of p38: resulted in activation of p38
MM cells [1]; HS Sultan MM cells
  proliferation: block completely
MM cells [1]; IM9 MM cells
  sensitivity of proliferation to MG-132 alone: not sensitive
MM cells [1]; U266 MM cells
  proliferation: block completely

## CC(C)C[C@H](NC(=O)[C@H](Cc1ccccc1)NC(=O)c1cnccn1)B(O)O [PS-341]
[4]
  clinically observed circulating concentration: 40 to 100 nM
Hsp27; RPMI8226, 10 nM PS-341, 12 and 16 hours
  Hsp27 protein levels: reduced
Hsp27; [5]
  Hsp27 expression: induced
  Hsp70 expression: induced
Hsp27; RPMI8226, 10 nM PS-341, same samples
  decrease in the levels of Hsp70 or Hsp90: not observed
Caspases and PARP
  PARP cleavage: proportional increase
  activation or cleavage of procaspases-8, -9, -3, -6, and -7: successively increasing activation or cleavage
RPMI8226 cells; 10 nM PS-341, 8 hours
  apoptotic cells: early apoptotic cells are apparent
RPMI8226 cells; 10 nM PS-341, 12 hours
  apoptotic cells: about half the cells
RPMI8226 cells; 10 nM PS-341, 16 hours
  apoptotic cells: most
